Laboratory results as given in patent US20250255889A1, “METHODS FOR TREATMENT SELECTION FOR CHRONIC LYMPHOCYTIC LEUKEMIA (CLL)” (The Broad Institute, Inc., priority 2022, published 2025).

Test system: primary CLL samples (CD19+ and CD5+ cells)
Experiment: High-throughput dynamic BH3 profiling (HT-DBP): drug-induced apoptotic priming (delta priming), cytochrome c release after BH3 peptide
Format: cell-based, human
Description: By “delta priming” is meant the difference in priming of a cell for apoptosis measured in the presence of an agent for treating chronic lymphocytic leukemia relative to priming of the cell in the presence of an inert carrier. In embodiments, the inert carrier is DMSO.
Dynamic BH3 Profiling Dynamic BH3 profiling (DBP) is a drug screening assay that measures the relative priming of cells in a biological sample for cell death by apoptosis in the presence of a specific compound and/or a pro-apoptotic peptide. By “Dynamic BH3 profiling” is meant measuring drug-induced changes in mitochondrial apoptotic priming. Mitochondrial apoptotic priming is a measure of how close to the apoptotic threshold a cell is. A highly primed cell has relatively less anti-apoptotic binding site availability and is closer to the apoptotic threshold than a poorly primed cell, which has more anti-apoptotic availability to buffer an apoptotic assault and is further from the apoptotic threshold. BH3 peptides derived from the BH3 domain of pro-apoptotic BH3-only proteins provoke a response from viable mitochondria. Cytochrome c released from the mitochondria after a short incubation with BH3 peptide is used as a surrogate for priming. In general, the more sensitive a mitochondrion is to a BH3 peptide, the more primed it is. A drug treatment that enhances priming will cause mitochondria to undergo MOMP more easily when incubated with a fixed concentration of a promiscuously binding BH3 peptide, such as BIM BH3 peptide, compared to control-treated cells. See, for example, Potter, D. S. & Letai, A. To prime, or not to prime: that is the question. Cold Spring Harb. Symp. Quant. Biol. 81, 131-140 (2016); Montero, J. et al. Drug-induced death signaling strategy rapidly predicts cancer response to chemotherapy. Cell 160, 977-989 (2015); Daniels, V. W. et al. Metabolic perturbations sensitize triple-negative breast cancers to apoptosis induced by BH3 mimetics. Sci.
Dynamic BH3 profiling and peptides for use therein are described, for example, in Certo, et al., “Mitochondria primed by death signals determine cellular addiction to antiapoptotic BCL-2 family members,” Cancer Cell, 9:351-365 (2006); and in Foight, et al. “Designed BH3 Peptides with High Affinity and Specificity for Targeting Mcl-1 in Cells,” ACS Chemical Biology, 9:1962-1968 (2014), the disclosures of which are incorporated herein by reference in their entireties for all purposes. The DBP assay enables one to compare the response of a patient tumor sample to a specific drug relative to other drugs and relative to an inert control (e.g., DMSO).
To address the challenge of selecting a proper treatment for a chronic lymphocytic leukemia, experiments were undertaken to optimize high-throughput dynamic BH3 profiling (HT-DBP) for evaluation of the drug sensitivities of CLL samples (FIGS. 1, 13, 5A, 5B, 6A, 6B, and 7A-7C).

[1] = peptide BAD 0.3 uM, feature BIRC3
[2] = peptide BAD 0.3 uM, feature ITIH2
[3] = peptide BAD 0.3 uM, feature i-CLL
[4] = peptide BAD 0.3 uM, feature loss_9p21.3
[5] = peptide BAD 0.3 uM, feature loss_17q11.2
[6] = peptide BIM 0.01 uM, feature BCOR
[7] = peptide BIM 0.01 uM, feature n-CLL
[8] = peptide MS1 2.5 uM, feature SAMHD1
[9] = peptide BIM 0.01 uM, feature loss_17q23.1
[10] = peptide MS1 2.5 uM, feature priortrt_Post
[11] = peptide PUMA 1 uM, feature EC-m2
[12] = peptide PUMA 1 uM, feature loss_6q21
[13] = peptide PUMA 1 uM, feature loss_17q23.1
[14] = peptide BIM 0.01 uM, feature loss_15q15.1b
[15] = peptide BIM 0.01 uM, feature loss_20p11.22
[16] = peptide MS1 2.5 uM, feature CNOT3
[17] = peptide BAD 0.3 uM, feature loss_1q42.13
[18] = peptide BAD 0.3 uM, feature loss_16p11.2

For `CN1CC[C@@H](c2c(O)cc(O)c3c(=O)cc(-c4ccc(C(F)(F)F)cc4Cl)oc23)[C@@H]1CO` [Voruciclib], the direction [1] was “Sensitive”, the dprim_pearson_corr [1] was 0.3672 and the direction [2] was “Sensitive”. The dprim_pearson_corr [2] was 0.3672, the direction [3] was “Sensitive” and the dprim_pearson_corr [3] was 0.4321. For the same compound, the direction [4] was “Sensitive”, the dprim_pearson_corr [4] was 0.3672 and the direction [5] was “Sensitive”. For the same compound, the dprim_pearson_corr [5] was 0.3672, the direction [6] was “Resistant” and the dprim_pearson_corr [6] was −0.4056. The direction [7] was “Resistant”, the dprim_pearson_corr [7] was −0.3372 and the direction [8] was “Resistant”. The dprim_pearson_corr [8] was −0.3337, the direction (peptide PUMA 1 uM, feature SF3B1) was “Resistant” and the direction (peptide PUMA 1 uM, feature i-CLL) was “Sensitive”.

In the case of `CN(C)Cc1c(C(=O)NCCOc2ccc(C(=O)NO)cc2)oc2ccccc12` [Abexinostat], the drug-induced apoptotic priming (across CLL subtypes, 65 primary CLL samples, 20 hours drug) is reported as “high priming”, the “efficacy by DBP response” value (cases where patients would be likely resistant to Nutlin 3, MK-2206 and Zanubrutinib) is reported as “effective” and the direction (peptide BAD 0.3 uM, feature EC-m2) is reported as “Sensitive”. For the same compound, the direction (peptide BIM 0.01 uM, feature CNOT3) was “Sensitive”, the direction (peptide BIM 0.01 uM, feature EC-m2) was “Sensitive” and the direction [9] was “Sensitive”. For the same compound, the direction (peptide BIM 0.01 uM, feature priortrt_Post) was “Sensitive”, the direction (peptide MS1 2.5 uM, feature FBXW7) was “Sensitive” and the direction (peptide MS1 2.5 uM, feature ITIH2) was “Sensitive”. For the same compound, the direction [10] was “Sensitive”, the direction [11] was “Sensitive” and the direction [12] was “Sensitive”. For the same compound, the direction [13] was “Sensitive”.

In the case of `Nc1cccc2c1CN(C1CCC(=O)NC1=O)C2=O` (stereo not drawn) [Lenalidomide], the direction (peptide BAD 0.3 uM, feature loss_10q24.32) is reported as “Resistant”, the direction [14] is reported as “Resistant” and the direction [15] is reported as “Resistant”. The direction [16] was “Sensitive”.

With `Cc1c2c(nn1C)CSCc1cc(n(C)n1)CSc1cc(c3ccccc3c1)OCCCc1c(C(=O)O)n(C)c3c-2c(Cl)ccc13` [AZD5991] the direction (Feature EC-i) was “Sensitive”, the direction (Feature loss_3p13) was “Sensitive” and the direction (peptide BAD 0.3 uM, feature EC-i) was “Sensitive”. The direction (peptide BAD 0.3 uM, feature POT1) was “Sensitive”, the direction [17] was “Sensitive” and the direction (peptide BAD 0.3 uM, feature loss_7p22.2) was “Sensitive”. The direction (peptide BAD 0.3 uM, feature loss_14q32.12) was “Sensitive”, the direction [18] was “Sensitive” and the direction (peptide BIM 0.01 uM, feature ANK1) was “Sensitive”. For the same compound, the direction (peptide BIM 0.01 uM, feature loss_1p36.11) was “Sensitive”, the direction (peptide BIM 0.01 uM, feature loss_3p13) was “Sensitive” and the direction (peptide BIM 0.01 uM, feature loss_15q26.1) was “Sensitive”. For the same compound, the direction (peptide BIM 0.01 uM, feature loss_18q21.2) was “Sensitive”, the direction [16] was “Sensitive” and the direction (peptide PUMA 1 uM, feature BIRC3) was “Sensitive”. The direction (peptide PUMA 1 uM, feature EC-i) was “Sensitive”, the direction (peptide PUMA 1 uM, feature loss_1q42.13) was “Sensitive” and the direction (peptide PUMA 1 uM, feature loss_7p22.2) was “Sensitive”. The direction (peptide PUMA 1 uM, feature loss_9p21.3) was “Sensitive”, the direction (peptide PUMA 1 uM, feature loss_16p11.2) was “Sensitive” and the direction (peptide PUMA 1 uM, feature loss_17q11.2) was “Sensitive”.

`CC(C)c1cc(C(=O)N2Cc3ccc(CN4CCN(C)CC4)cc3C2)c(O)cc1O` [Onalespib] was tested, and the direction [17] was “Sensitive”, the direction (peptide BAD 0.3 uM, feature loss_13q14.13) was “Sensitive” and the direction [18] was “Sensitive”. For the same compound, the direction [14] was “Resistant”, the direction [15] was “Resistant” and the direction (peptide MS1 2.5 uM, feature loss_19p13.11) was “Sensitive”. For the same compound, the direction [12] was “Resistant”.

For `CNC(=O)c1cc(Oc2ccc(NC(=O)Nc3ccc(Cl)c(C(F)(F)F)c3)cc2)ccn1` [Sorafenib], the direction (peptide BAD 0.3 uM, feature GNB1) was “Sensitive”, the direction (peptide BAD 0.3 uM, feature RFX7) was “Sensitive” and the direction (peptide BAD 0.3 uM, feature ZMYM3) was “Sensitive”. For the same compound, the direction [3] was “Resistant”, the direction (peptide BIM 0.01 uM, feature FBXW7) was “Resistant” and the direction (peptide BIM 0.01 uM, feature GNB1) was “Sensitive”. For the same compound, the direction (peptide BIM 0.01 uM, feature RFX7) was “Resistant”, the direction (peptide BIM 0.01 uM, feature ZMYM3) was “Resistant” and the direction (peptide BIM 0.01 uM, feature gain_19p13.3) was “Resistant”. The direction (peptide BIM 0.01 uM, feature loss_2q31.1) was “Resistant”, the direction (peptide BIM 0.01 uM, feature loss_10p12.2) was “Resistant” and the direction (peptide MS1 2.5 uM, feature RFX7) was “Resistant”. The direction (peptide MS1 2.5 uM, feature ZMYM3) was “Resistant”, the direction (peptide MS1 2.5 uM, feature gain_19p13.3) was “Resistant” and the direction (peptide MS1 2.5 uM, feature loss_2q31.1) was “Resistant”. For the same compound, the direction (peptide MS1 2.5 uM, feature loss_10p12.2) was “Resistant”, the direction (peptide MS1 2.5 uM, feature loss_10q24.2) was “Resistant” and the direction (peptide MS1 2.5 uM, feature loss_11q22.3) was “Resistant”. For the same compound, the direction (peptide MS1 2.5 uM, feature m-CLL) was “Sensitive”, the direction [10] was “Resistant” and the direction (peptide PUMA 1 uM, feature FBXW7) was “Resistant”. For the same compound, the direction (peptide PUMA 1 uM, feature RFX7) was “Resistant” and the direction (peptide PUMA 1 uM, feature ZMYM3) was “Resistant”.

For `Cc1c(-c2ccc(N3CCc4cccc(C(=O)Nc5nc6ccccc6s5)c4C3)nc2C(=O)O)cnn1CC12CC3CC(CC(C3)C1)C2` [A-1331852], the direction (Feature EC-m2) was “Resistant”, the direction (peptide BAD 0.3 uM, feature CNOT3) was “Sensitive” and the direction (peptide BIM 0.01 uM, feature CARD11) was “Resistant”. The direction (peptide BIM 0.01 uM, feature EC-u2) was “Sensitive”, the direction (peptide BIM 0.01 uM, feature MYD88) was “Resistant” and the direction (peptide PUMA 1 uM, feature CNOT3) was “Sensitive”. For the same compound, the direction [11] was “Resistant” and the direction [12] was “Resistant”.

`Cc1nc(Nc2ncc(C(=O)Nc3c(C)cccc3Cl)s2)cc(N2CCN(CCO)CC2)n1` [Dasatinib, dasatinib] was tested, and the direction (peptide BAD 0.3 uM, feature IGLV321_R110) was “Resistant”, the direction (peptide BAD 0.3 uM, feature NOTCH1) was “Resistant” and the direction (peptide BAD 0.3 uM, feature RPS15) was “Resistant”. The direction (peptide BAD 0.3 uM, feature loss_6q) was “Resistant”, the direction (peptide BIM 0.01 uM, feature IGLV321_R110) was “Resistant” and the direction (peptide BIM 0.01 uM, feature NOTCH1) was “Resistant”. For the same compound, the direction (peptide BIM 0.01 uM, feature RPS15) was “Resistant”, the direction (peptide BIM 0.01 uM, feature loss_6q) was “Resistant” and the direction [9] was “Sensitive”. For the same compound, the direction (peptide MS1 2.5 uM, feature EC-i) was “Resistant”, the direction (peptide MS1 2.5 uM, feature IGLV321_R110) was “Resistant” and the direction (peptide MS1 2.5 uM, feature NOTCH1) was “Resistant”. The direction (peptide MS1 2.5 uM, feature RPS15) was “Resistant”, the direction (peptide MS1 2.5 uM, feature loss_6q) was “Resistant” and the direction (peptide MS1 2.5 uM, feature tri_12) was “Sensitive”. For the same compound, the direction (peptide PUMA 1 uM, feature IGLV321_R110) was “Resistant”, the direction (peptide PUMA 1 uM, feature NOTCH1) was “Resistant” and the direction (peptide PUMA 1 uM, feature RPS15) was “Resistant”. For the same compound, the direction (peptide PUMA 1 uM, feature loss_6q) was “Resistant” and the direction [13] was “Sensitive”.
